Source: patent EP4512806A1, “MOLECULAR GLUE DEGRADERS AND USES THEREOF” (Mablink Bioscience, priority 2023, dated 2025)

Columns and labels:
[1] = In vivo mice tolerability assessment; details: female CD-1 mice, single intravenous 1mg/kg dose, Mean
Method: All animal procedures were performed in accordance with the European Union directive 86/609/EEC. Experiments were performed under individual permit and in accredited animal care facilities.
Mouse tolerability experiments were performed with selected compounds of the disclosure. Female CD-1 mice (n=5 mice per group) were treated with a single intravenous 1mg/kg dose of compound. Vehicle was PBS pH 6.0. Mice were carefully monitored for mortality, external clinical findings, weight loss, behavior and apparent signs of toxicity over the course of 21 days.

340 protein kinases = test: Kinase screening assay (radiometric 33PanQinase ActivityAssay); format: biochemical, human; details: final compound concentration of 10 µM; most inhibited kinases belong to CMGC family, particularly CDK; 23 out of the 30 most inhibited were CDK/Cyclin complexes
Method: Compound 2384 according to the disclosure was subjected to kinase screening assays (performed at Reaction Biology, Germany). The screening assay was performed at a final compound concentration of 10 µM. A radiometric protein kinase assay (33PanQinase® ActivityAssay) was used for measuring the kinase activity of 340 protein kinases. All kinase assays were performed in 96-well FlashPlates™ from Perkin Elmer (Boston, MA, USA) in a 50 µL reaction volume. […] All PKC assays (except the PKC-mu and the PKC-nu assay) additionally contained 1 mM CaCl2, 4 mM EDTA, 5 µg/ml Phosphatidylserine and 1 µg/ml 1,2-Dioleyl-glycerol. The CAMK1D, CAMK2A, CAMK2B, CAMK2D, CAMK2G, CAMK4, CAMKK1, CAMKK2, DAPK2, EEF2K, MYLK, MYLK2 and MYLK3 assays additionally contained 1 µg/ml Calmodulin and 0.5 mM CaCl2. The PRKG1 and PRKG2 assays additionally contained 1 µM cGMP. The DNA-PK assay additionally contained 2.5 µg/ml DNA. The protein kinase reaction cocktails were incubated at 30°C for 60 minutes. The reaction was stopped with 50 µl of 2 % (v/v) H3PO4, plates were aspirated and washed two times with 200 µL 0.9 % (w/v) NaCl. Incorporation of 33Pi (counting of "cpm") was determined with a microplate scintillation counter (Microbeta, Wallac). All protein kinase assays were performed with a BeckmanCoulter Biomek 2000/SL robotic system. […]

Cyclin K = test: CycK mRNA RT-qPCR in JIMT-1 cells; format: cell-based, human; details: 1µM final concentration, 2h
Method: 1×10^6 JIMT-1 cells were plated in 3mL of DMEM/FBS 90:10 (v/v) in 6-well plates and incubated overnight. Cells were treated with the compound 2384 of the invention, with CR8 (a known molecular glue degrader that depletes CycK) or with the proteasome inhibitor MG-132 (MedChemExpress, Cat HY-13259) for 2h. RNA was extracted using the QIAamp RNeasy Mini Kit (cat#74106, Qiagen) according to the manufacturer's protocol. Reverse transcription was performed using SuperScripr™ IV reverse transcriptase (cat#LT02241, Invitrogen). Quantitative PCR was performed using a No ROX Sybr Master Mix in the LightCycler 480 Real-Time PCR system (Roche Life Science).
Cyclin K forward ([…]) and reverse ([…]) primers were purchased from Eurogentec. Gene expression was normalized using ribosomal 28S as the housekeeping gene.

JIMT-1 cells = test: Cell cycle arrest assessment (propidium iodide, flow cytometry); format: cell-based, human; details: 24h, 2, 5, 10, and 50nM
Method: 1×10^6 JIMT-1 cells were plated in 3mL of DMEM/FBS 90:10 (v/v) in 6-well plates and incubated overnight. Cells were treated with the compound 2384 of the invention or with CR8 for 24h. Cells were then harvested and washed three times with PBS. Cells were suspended into 300µL of propidium iodide working solution (0.05mg/mL) and incubated for 45 minutes at 4°C in the dark. Analysis was performed using a BD Fortessa flow cytometer controlled by BD FACSDiva software (BD Biosciences) and data were analyzed using FlowJo software (BD Bioscience).

[2] = test system: panel of human cancer cell lines; test: In vitro cytotoxicity assay (MTT), panel of cell lines; format: cell-based
Source text: Human cancer cell lines used in the present project were purchased from either the American Type Culture Collection (ATCC), The Leibniz Institute DSMZ German Collection of Microorganisms and Cell Cultures GmbH (DSMZ) or the European Collection of Authenticated Cell Cultures (ECACC). For use in experiments, cells were cultivated following good and established cell culture practices, following instructions from the original ATCC/DSMZ/ECACC supplier for cell culture media & supplement, cryopreservation, and subculturing procedures. Cells were incubated under a 5% CO2 atmosphere at 37°C for no longer than 2 months.
In vitro cytotoxicity of compounds of the disclosure was assessed on several cancerous human cell lines. Cells were plated in 96-well plates at an appropriate density depending on the cell line (between 1000 and 10 000 cells/well in 100µL of appropriate culture media) and incubated at 37°C for 24 hours. Serial dilutions of the tested compound previously dissolved in culture media (50µL) were added, and incubation was carried at 37°C out for 6 days. MTT (5mg/mL in PBS, 20µL, Sigma-Aldrich) was added into the wells, and incubation was continued for 1 to 4 hours at 37°C. Culture media was then carefully removed, and well content was homogeneously dissolved with acidified isopropanol. Absorbance values were measured on a microplate reader using a wavelength of 570 nm (with a reference wavelength of 690 nm). The IC50 concentration values compared to untreated control cells were determined using inhibition dose response curve fitting (GraphPad Prism 9). Exatecan mesylate (cat#HY-13631A) and CR8 (CAS# 294646-77-8; cat#HY-18340) were purchased from MedChemExpress (China).

SMILES: N[C@H]1CC[C@H](Nc2nc(NCc3ccc(-c4ccccn4)cc3)n3ncc(Br)c3n2)CC1 [Compound 2384]
- average weight change (% initial weight) ([1]; Study Day 1): 0.0 % initial weight
- average weight change (% initial weight) ([1]; Study Day 2): -2.5 % initial weight
- average weight change (% initial weight) ([1]; Study Day 3): -7.1 % initial weight
- average weight change (% initial weight) ([1]; Study Day 4): -14.6 % initial weight
- average weight change (% initial weight) ([1]; Study Day 5): -15.2 % initial weight
- average weight change (% initial weight) ([1]; Study Day 6): -14.9 % initial weight
- average weight change (% initial weight) ([1]; Study Day 7): -12.4 % initial weight
- average weight change (% initial weight) ([1]; Study Day 8): -9.2 % initial weight
- average weight change (% initial weight) ([1]; Study Day 9): -7.3 % initial weight
- average weight change (% initial weight) ([1]; Study Day 10): -1.9 % initial weight
- average weight change (% initial weight) ([1]; Study Day 11): -0.7 % initial weight
- average weight change (% initial weight) ([1]; Study Day 12): 4.1 % initial weight
- average weight change (% initial weight) ([1]; Study Day 13): 1.9 % initial weight
- average weight change (% initial weight) ([1]; Study Day 14): -1.8 % initial weight
- average weight change (% initial weight) ([1]; Study Day 15): -3.4 % initial weight
- average weight change (% initial weight) ([1]; Study Day 16): -4.1 % initial weight
- average weight change (% initial weight) ([1]; Study Day 17): -1.6 % initial weight
- average weight change (% initial weight) ([1]; Study Day 18): -0.5 % initial weight
- average weight change (% initial weight) ([1]; Study Day 19): 0.7 % initial weight
- average weight change (% initial weight) ([1]; Study Day 20): 2.6 % initial weight
- average weight change (% initial weight) ([1]; Study Day 21): 2.0 % initial weight
- inhibition of most inhibited kinases (340 protein kinases): more than 90%
- CycK mRNA level (Cyclin K): not at the CycK mRNA level
- cell cycle analysis (propidium iodide) (JIMT-1 cells): arrest in the G2/M phase
- in vitro cytotoxic potency ([2]; panel of human cancer cell lines, in words): low nanomolar potencies
- cytotoxic potency compared to isopropyl counterpart ([2]; side-by-side comparison, Figures 1A/1B and 2A/2B): systematically more potent
